Laboratory results taken from patent publication US8455514B2 (Aerie Pharmaceuticals, Inc., priority 2008, dated 2013).
Structures can show the parent of a compound that is named as a salt.

Key:
[1] = tested on: eyes; assay: Topical pharmaceutical composition administered to the eyes as drops (present-tense composition examples); format: in vivo, patient; settings: composition of Example 90 (0.50 wt %)
Procedure: (§1) Topical pharmaceutical compositions for lowering intraocular pressure are prepared by conventional methods and formulated as follows: […]
A compound according to this invention is used as the 6- or 7-aminoisoquinoline derivative. When the composition is topically administered to the eyes once or more daily as 40 microliter drops, the above composition decreases intraocular pressure in a patient suffering from glaucoma.

[2] = tested on: eyes; assay: as above; format: in vivo, patient; settings: composition of Example 90 (0.50 wt %); for neuroprotective effect: topical drop 4 times per day; for effect on hyperemia, redness and ocular irritation: drop as needed
[3] = tested on: eyes of a Dutch-belted rabbit; assay: Intraocular pressure after a topical drop to the eyes of Dutch-belted rabbits; format: in vivo; settings: composition of Example 105 (0.30 wt %), 40 microliter drop topically once daily; for decrease of intraocular pressure: in some tests
Procedure: as §1
A pharmaceutical composition was prepared according to Example 105, where the 6-aminoisoquinoline derivative was (R)-2-(dimethylamino)-N-(1-hydroxyisoquinolin-6-yl)-2-(thiophen-3-yl)acetamide hydrochloride (E79). […] In some tests, the intraocular pressure was decreased by greater than 5 mm of mercury.

[4] = topical drop twice a day or as needed

## N[C@@H](C(=O)Nc1ccc2cnccc2c1)c1ccccc1 [Example E2, (R)-2-amino-N-(isoquinolin-6-yl)-2-phenylacetamide dihydrochloride]
[1]; topical drop 4 times per day
  effect on intraocular pressure: substantially decreases intraocular pressure
[2]
  neuroprotective effect: serves as a neuroprotective agent

## CN(C)[C@@H](C(=O)Nc1ccc2cnccc2c1)c1ccccc1 [Example E3, (R)-2-(dimethylamino)-N-(isoquinolin-6-yl)-2-phenylacetamide dihydrochloride]
[1]; topical drop twice per day
  effect on intraocular pressure: substantially decreases intraocular pressure
[2]
  effect on hyperemia, redness and ocular irritation: substantially decreases hyperemia, redness and ocular irritation

## Cl.Cl.N[C@@H](C(=O)Nc1ccc2cnccc2c1)C1CCCCC1 [Example E9, (R)—N-(isoquinolin-6-ylamino)-2-amino-2-cyclohexyl acetamide dihydrochloride]
[2]; topical drop as needed
  effect on allergic symptoms: substantially decreases allergic symptoms

## CCCN[C@H](C(=O)Nc1ccc2cnccc2c1)C1CCCCC1 [Example E25, (S)-2-cyclohexyl-N-(isoquinolin-6-yl)-2-(propylamino)acetamide]
[1]; [4]
  effect on intraocular pressure: substantially decreases intraocular pressure

## O=C(Nc1ccc2cnccc2c1)[C@@H](c1ccccc1)N1CCNCC1 [Example E40, (R)—N-(isoquinolin-6-yl)-2-phenyl-2-(piperazin-1-yl)acetamide]
[2]
  effect on hyperemia, redness and ocular irritation: substantially decreases hyperemia, redness and ocular irritation

## O=C(Nc1ccc2cnccc2c1)[C@@H](c1ccccc1)N1CCCNC1 [Example E41, (R)—N-(isoquinolin-6-yl)-2-phenyl-2-(tetrahydropyrimidin-1(2H)-yl)acetamide]
[1]; [4]
  effect on intraocular pressure: substantially decreases intraocular pressure

## O=S(=O)(Nc1ccc2cnccc2c1)C(NC1CCCCC1)c1ccccc1 (stereo not shown) [Example E50]
[2]; topical drop twice per day
  effect on allergic symptoms: substantially decreases allergic symptoms
  effect on dry eye syndrome: relieves dry eye syndrome

## CN(C)[C@@H](C(=O)Nc1ccc2c(O)nccc2c1)c1ccsc1 [Example E79, (R)-2-(dimethylamino)-N-(1-hydroxyisoquinolin-6-yl)-2-(thiophen-3-yl)acetamide hydrochloride]
[3]
  effect on intraocular pressure: substantially decreased intraocular pressure
  decrease of intraocular pressure: greater than 5 mm of mercury

## CN(C)[C@@H](C(=O)Nc1ccc2cnccc2c1)c1ccsc1.Cl [Example E80, (R)-2-(dimethylamino)-N-(isoquinolin-6-yl)-2-(thiophen-3-yl)acetamide hydrochloride]
[3]
  effect on intraocular pressure: substantially decreased intraocular pressure
  decrease of intraocular pressure: greater than 5 mm of mercury

## CC(C)C[C@@H](C(=O)Nc1ccc2ccncc2c1)N(C)C(=O)OC(C)(C)C [Example E87, (S)-tert-butyl 1-(isoquinolin-7-ylamino)-4-methyl-1-oxopentan-2-yl(methyl)carbamate]
[1]; topical drop 4 times per day
  effect on intraocular pressure: substantially decreases intraocular pressure

## CN[C@@H](CC(C)C)C(=O)Nc1ccc2ccncc2c1 [Example E88, (S)—N-(isoquinolin-7-yl)-4-methyl-2-(methylamino)pentanamide dihydrochloride]
[1]; topical drop 4 times per day
  effect on intraocular pressure: substantially decreases intraocular pressure

## (R)—N-(isoquinolin-6-yl amino)-2-(methylamino)-2-o-fluorophenyl acetamide dihydrochloride [Example E17]
[1]; topical drop 4 times per day
  effect on intraocular pressure: substantially decreases intraocular pressure
[2]
  neuroprotective effect: serves as a neuroprotective agent

## (R)—N-(isoquinolin-6-yl-amino)-2-(ethylamino)-2-p-methylphenyl acetamide dihydrochloride [Example E18]
[1]; topical drop twice per day
  effect on intraocular pressure: substantially decreases intraocular pressure
